The values that follow come from patent publication US4006232A, “Therapeutic method of treating cardiac arrhythmias utilizing 3-substituted diphenylhydantoins” (Miles Laboratories, Inc., priority 1974, dated 1977).

≈ marks a conversion by molar mass, not a printed value. Counter-ions that a name gives are not always drawn. Like-named read-outs stand apart in the source and are kept apart here. A value given as a limit tells only on which side of the number the result lay.

The conditions of data set [1]: extent of activity of DPH; cited from earlier work.
In data set [2] the test system is ventricular rate and rhythm. Description: Antiarrhythmic activity: protection against chloroform-induced ventricular arrhythmia in mice (Lawson). Format: in vivo. Conditions: Mus musculus, ip, 10 min; intraperitoneal, 10 min before chloroform; protected = ventricular rate not exceeding 100 contractions in 30 s; groups of 5 mice; parentheses = 95% confidence limits; read-out: ED50 (95% CL). The protocol:
The antiarrhythmic activity of the compounds of this invention, specifically those enumerated in the Summary and presented as the above examples, was compared to that of diphenylhydantoin (I), 3-(3-diethylaminopropyl)- 5,5-diphenylhydantoin (II), 3-[3-(1-piperidyl)-propyl]- 5,5-diphenylhydantoin (III), and 3-(3-morpholinopropyl)-5,5-diphenylhydantoin (IV).
(§1) The tests compounds were administered to groups consisting of 5 mice in varying intraperitoneal doses. Ten minutes after administration of a given dose of a compound, a mouse was transferred to a covered 300 ml glass beaker which contained a wad of cotton saturated with about 20 ml of chloroform. The animal was observed closely and removed from the beaker immediately after respiratory arrest. The heart was quickly exposed by making an incision through the abdomen, diaphragm, thorax and pericardium for visual inspection of ventricular rate and rhythm. Ventricular contractions were counted for 30 seconds. According to the procedure reported by Lawson (J. Pharmacol. Exp. Therap., 160:22 [1968]), animals with a ventricular rate not exceeding 100 contractions during the 30 second observation period were considered protected. Results obtained with each dose were used to calculate the mean effective doses (ED50) after the method of Litchfield and Wilcoxon (J. Pharmacol. Exp. Therap. 96: 99-113 [ 1949]).
In Table A, the compounds of this invention are listed by the arabic numeral assigned in the Summary and the above corresponding Example Number; the Roman numerals refer to the compounds so designated above in this Example and in the Description of the Prior Art.

The next data set can be described thus: in vivo. The conditions noted are these: intraperitoneal; for MLD (Minimum Lethal Dose): deaths before exposure to chloroform; for selectivity ratio: mouse, in vivo, ip, calculated with Minimum Lethal Dose data, read-out: MLD/ED50 (Therapeutic Index). It is filed as in vivo. The protocol: as §1
Another data set has as its system Guinea pig atria. The data set is described as follows: Refractory period in isolated atria, electrical stimulation (Dawes). Conditions: Cavia porcellus, read-out: EC50 (amount necessary for increasing the minimum interval by 50 percent over control values). The protocol:
The effect of the compounds of this invention on the refractory period in the atrium was studied and compared to that hydantoin according to the procedure described by Dawes (Brit. J. Pharmacol., 1: 90, [1946]).
Guinea pig atria, suspended in an isolated organ chamber, were stimulated electrically at increasing frequencies while the resulting mechanical contractions were recorded. The minimum interval between two consecutive stimuli necessary for eliciting a mechanical response was determined before and after incubation with varying concentrations of the test compounds. The minimum interval thus determined is an indirect measure of the refractory period in the tissue, and a prolongation of this interval indicates an increased refractory period. From the increase in minimum interval observed with each concentration, the amount necessary for increasing the interval by 50 percent over control values (EC50) was determined for each compound.

The conditions of data set [3]: prior art, cited from earlier work.
The next data set relates to heart. Conditions: prior art; cited from earlier work.
Setting [4] is: guinea pig atria, electrical stimulation, indirect measure of refractory period.

In the case of `Nc1ccc(C2(c3ccccc3)NC(=O)NC2=O)cc1` (centres unmarked) [5-(4-aminophenyl)-5-phenylhydantoin], in data set [1], the “activity relative to DPH” value was 50%.
For orientation: ED50 means the dose that gives a 50% effect, or the effect in half of the subjects. Turning to `O=C(O)/C=C\C(=O)O.O=C1NC(c2ccccc2)(c2ccccc2)C(=O)N1CCCN1CCN(c2ccccc2)CC1` [Compound 1, 3-[3-(4-phenyl-1-piperazinyl)propyl]-5,5-diphenylhydantoin maleate], in data set [2], the ED50 is 16.4 mg/kg. In the data set “in vivo”, the “MLD (Minimum Lethal Dose)” value is on record as greater than 160 mg/kg and the selectivity ratio is greater than 9.77. Also, the EC50 with Guinea pig atria (setting [4]) is 4.4 µg/mL.
Consider `O=C1NC(c2ccccc2)(c2ccccc2)C(=O)N1CCCN1CCC(c2ccccc2)CC1` [Compound 2, 3-[3-(4-phenyl-1-piperidyl)propyl]-5,5-diphenylhydantoin], for which the ED50 in data set [2] was 13.5 mg/kg. Moreover, in the data set “in vivo”, the “MLD (Minimum Lethal Dose)” value was 320 mg/kg and the selectivity ratio was 23.7. Besides, the EC50 in the data set with Guinea pig atria (setting [4]) stood at 1.1 µg/mL (≈ 2.43 µM).
Take `O=C1NC(c2ccccc2)(c2ccccc2)C(=O)N1CCN1CC=C(c2ccccc2)CC1` [Compound 4, 5,5-diphenyl-3-[2-(4-phenyl-1,2,3,6-tetrahydropyridyl)ethyl]hydantoin hydrochloride]: the ED50 in data set [2] was determined as 96 mg/kg. Besides, in the data set “in vivo”, the “MLD (Minimum Lethal Dose)” value is listed as greater than 178 mg/kg and the selectivity ratio is greater than 1.85. Also, the EC50 with Guinea pig atria amounted to 5.7 µg/mL.
For the compound `Cl.O=C1NC(c2ccccc2)(c2ccccc2)C(=O)N1CCCN1CCC(O)(c2ccccc2)CC1` [Compound 5, 5,5-diphenyl-3-[3-(4-hydroxy-4-phenyl-1-piperidyl)propyl]hydantoin hydrochloride], the ED50 in data set [2] was found to be 5.8 mg/kg. In addition, in the data set “in vivo”, the “MLD (Minimum Lethal Dose)” value was 31 mg/kg and the selectivity ratio is 5.35. In the data set with Guinea pig atria, the EC50 is greater than 10 µg/mL.
On to `CC(C)(C)NCC(O)CN1C(=O)NC(c2ccccc2)(c2ccccc2)C1=O.Cl` (centres unmarked) [Compound 6, 3-(3-t-butylamino-2-hydroxypropyl)-5,5-diphenylhydantoin hydrochloride], for which the ED50 in data set [2] is 9.4 mg/kg. In the data set “in vivo”, the “MLD (Minimum Lethal Dose)” value turned out to be 100 mg/kg and the selectivity ratio is 10.6. Moreover, the EC50 in the data set on Guinea pig atria (setting [4]) was determined as 1.5 µg/mL.
For the compound `Cl.O=C1NC(c2ccc(Cl)cc2)(c2ccc(Cl)cc2)C(=O)N1CCCN1CCC(c2ccccc2)CC1` [Compound 8, 3-[3-(4-phenyl-1-piperidyl)propyl]-5,5-di(4-chlorophenyl)hydantoin hydrochloride], the ED50 in data set [2] is 75 mg/kg. Besides, in “in vivo”, the “MLD (Minimum Lethal Dose)” value is greater than 178 mg/kg and the selectivity ratio is greater than 2.28. The EC50 with Guinea pig atria (setting [4]) is greater than 10 µg/mL.
The matching figures for `COc1ccc(C2(c3ccc(OC)cc3)NC(=O)N(CCCN3CCC(c4ccccc4)CC3)C2=O)cc1.Cl` [Compound 10, 3-[3-(4-phenyl-1-piperidyl)propyl]-5,5-di(4-methoxyphenyl)hydantoin hydrochloride]: 34 mg/kg, greater than 178 mg/kg, greater than 5.24 and 6.4 µg/mL.
Consider `Cl.O=C1NC(c2ccccc2)(c2ccc(Br)cc2)C(=O)N1CCCN1CCC(c2ccccc2)CC1` (centres unmarked) [Compound 11, 3-[3-(4-phenyl-1-piperidyl)propyl]-5-(4-bromophenyl)-5-phenylhydantoin hydrochloride], for which the ED50 in data set [2] was 33.5 mg/kg. Further, in the data set “in vivo”, the “MLD (Minimum Lethal Dose)” value is listed as greater than 100 mg/kg and the selectivity ratio is greater than 2.98. Further, the EC50 with Guinea pig atria (setting [4]) was 4 µg/mL.
Take `Cc1ccc(C2(c3ccccc3)NC(=O)N(CCCN3CCC(c4ccccc4)CC3)C2=O)cc1.O=C(O)/C=C\C(=O)O` (centres unmarked) [Compound 12, 3-[3-(4-phenyl-1-piperidyl)propyl]-5-phenyl-5-(4-tolyl)hydantoin maleate]: the median effective dose (ED50) in data set [2] was found to be 19.5 mg/kg. Also, in the data set “in vivo”, the “MLD (Minimum Lethal Dose)” value is greater than 100 mg/kg and the selectivity ratio is greater than 5.13. For the same compound, in the data set on Guinea pig atria (setting [4]), the EC50 stood at 4.8 µg/mL.
Regarding `Cc1ccc(C2(c3ccc(C)cc3)NC(=O)N(CCCN3CCC(c4ccccc4)CC3)C2=O)cc1` [Compound 13, 3-[3-(4-phenyl-1-piperidyl)propyl]-5,5-di(4-tolyl)hydantoin], in data set [2], the ED50 came out at 4.5 mg/kg. In the data set “in vivo”, the “MLD (Minimum Lethal Dose)” value is recorded as greater than 100 mg/kg and the selectivity ratio was greater than 22.2. Moreover, the EC50 in the data set with Guinea pig atria (setting [4]) was greater than 10 µg/mL.
As for `O=C1NC(c2ccccc2)(c2ccc([N+](=O)[O-])cc2)C(=O)N1CCCN1CCC(c2ccccc2)CC1` (centres unmarked) [Compound 14, 3-[3-(4-phenyl-1-piperidyl)propyl]-5-(4-nitrophenyl)-5-phenylhydantoin], in data set [2], the ED50 came out at 10.5 mg/kg. For the same compound, in “in vivo”, the “MLD (Minimum Lethal Dose)” value is recorded as greater than 100 mg/kg and the selectivity ratio was greater than 9.52. Also, the EC50 in the data set with Guinea pig atria (setting [4]) came to 8.3 µg/mL (≈ 16.6 µM).
For the compound `Nc1ccc(C2(c3ccccc3)NC(=O)N(CCCN3CCC(c4ccccc4)CC3)C2=O)cc1` (centres unmarked) [Compound 15, 3-[3-(4-phenyl-1-piperidyl)propyl]-5-(4-aminophenyl)-5-phenylhydantoin], in data set [2], the 50% effective dose (ED50) was 3.4 mg/kg. In the data set “in vivo”, the “MLD (Minimum Lethal Dose)” value is greater than 100 mg/kg and the selectivity ratio was greater than 29.4. Besides, the EC50 with Guinea pig atria (setting [4]) worked out at 3.7 µg/mL (≈ 7.9 µM).
With `Cc1ccc(C2(c3ccc(C)cc3)NC(=O)N(CCCN3CCC(O)(c4ccccc4)CC3)C2=O)cc1` [Compound 18, 3-[3-(4-hydroxy-4-phenyl-1-piperidyl)propyl]-5,5-di-(4-tolyl)hydantoin], the median effective dose (ED50) in data set [2] was 24 mg/kg. For the same compound, in the data set “in vivo”, the “MLD (Minimum Lethal Dose)” value is listed as greater than 100 mg/kg and the selectivity ratio is greater than 4.17. Besides, the EC50 in the data set with Guinea pig atria was 1.9 µg/mL (≈ 3.82 µM).
Consider `O=C1NC(=O)C(c2ccccc2)(c2ccccc2)N1` [I, 5,5-diphenyl-2,4-imidazolidinedione], for which, in data set [2], the ED50 is 394 mg/kg. Besides, the “MLD (Minimum Lethal Dose)” value in “in vivo” is on record as 1000 mg/kg. The “side effects of large doses” value in data set [3] (large doses) is reported as “atrio-ventricular blockage, bradycardia, or even cardiac arrest”. In data set [3], the untoward side effects entry is “dizziness, nausea, emesis, nystigmus, and ataxia”. Besides, the EC50 with Guinea pig atria (setting [4]) turned out to be 20 µg/mL (≈ 79.3 µM). Further, in the data set with heart, the “action on ventricular arrhythmias induced by digitalis” value is reported as “antagonize ventricular arrhythmias induced by digitalis”, the atrio-ventricular nodal conduction entry is “enhances atrio-ventricular nodal conduction”, the effective refractory period entry is listed as “reduces the effective refractory period” and the ventricular automaticity entry was “depresses ventricular automaticity”.
For the compound `CCN(CC)CCCN1C(=O)NC(c2ccccc2)(c2ccccc2)C1=O` [II, 3-(3-diethylaminopropyl)-5,5-diphenylhydantoin, reference compound], the median effective dose (ED50) in data set [2] amounted to 14 mg/kg. In the data set “in vivo”, the “MLD (Minimum Lethal Dose)” value is reported as 56 mg/kg and the selectivity ratio is 4.
Consider `O=C1NC(c2ccccc2)(c2ccccc2)C(=O)N1CCCN1CCCCC1` [III, 3-[3(1-piperidyl)propyl]-5,5-diphenylhydantoin, reference compound], for which the 50% effective dose (ED50) in data set [2] was found to be 19 mg/kg. For the same compound, in the data set “in vivo”, the “MLD (Minimum Lethal Dose)” value was determined as 31 mg/kg and the selectivity ratio was 1.63.
As to `O=C1NC(c2ccccc2)(c2ccccc2)C(=O)N1CCCN1CCOCC1` [IV, 3-(3-morpholinopropyl)-5,5-diphenylhydantoin, reference compound], the ED50 in data set [2] was 76 mg/kg. In “in vivo”, the “MLD (Minimum Lethal Dose)” value stood at 178 mg/kg and the selectivity ratio is 2.34.
